Patent publication US12180187B2, “1-phenyl-5-azinylpyrazolyl-3-oxyalkyl acids and their use for controlling unwanted plant growth” (BAYER AKTIENGESELLSCHAFT, priority 2019, dated 2024)

Columns and labels:
[1] = system: SETVI; assay: Pre-emergence action at 320 g/ha against SETVI; assay type: in vivo, Setaria viridis; details: visual scoring after about 3 weeks vs untreated controls
How it was run: (§1)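 Application: aqueous WP or EC with 0.5% additive on soil covering seeds, 600 l/ha. Read-out: visual percent damage after ~3 weeks in greenhouse, untreated pots as reference.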

[2] = system: AMARE; assay: Pre-emergence action at 320 g/ha against AMARE; assay type: in vivo, Amaranthus retroflexus; details: visual scoring after about 3 weeks vs untreated controls
How it was run: as §1

[3] = system: SETVI; assay: Pre-emergence action against SETVI, 1280 g/ha; assay type: in vivo, Setaria viridis; details: visual scoring after about 3 weeks vs untreated controls, 100% = plants have died, 0% = like control plants
How it was run: (§2)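 Sandy loam pots, seeds covered with soil; aqueous WP/EC spray on covering soil, 0.5% additive, 600 L/ha. Greenhouse growth, good conditions. Readout: visual % activity at ~3 weeks (0% = like control, 100% = dead).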

[4] = system: ALOMY; assay: Post-emergence action against ALOMY, 1.28 kg/ha; assay type: in vivo, Alopecurus myosuroides; details: dosage 1280 g/ha, visual rating about 3 weeks after treatment vs untreated controls
How it was run: (§3)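 Spray at one-leaf stage with WP/EC + 0.5% additive, 600 L water/ha. Greenhouse, optimum conditions, ~3 wk. Visual % control vs untreated; 0 = no effect, 100 = dead.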

[5] = system: VERPE; assay: Pre-emergence action against VERPE, 1280 g/ha; assay type: in vivo, Veronica persica; details: scored visually after about 3 weeks vs untreated controls (100% = plants have died)
How it was run: as §2

[6] = system: POLCO; assay: Pre-emergence action at 320 g/ha against POLCO; assay type: in vivo, Fallopia convolvulus (Polygonum convolvulus); details: visual scoring after about 3 weeks vs untreated controls
How it was run: as §1

[7] = system: AVEFA; assay: Pre-emergence action at 320 g/ha against AVEFA; assay type: in vivo; details: visual scoring after about 3 weeks vs untreated controls
Source text: (§4) b) Seeds of monocotyledonous and dicotyledonous weed plants and crop plants are placed in plastic or organic planting pots and covered with soil. The compounds of the invention, formulated in the form of wettable powders (WP) or as emulsion concentrates (EC), are then applied onto the surface of the covering soil as aqueous suspension or emulsion with addition of 0.5% additive at a water application rate of 600 l/ha (converted). After the treatment, the pots are placed in a greenhouse and kept under good growth conditions for the trial plants. After about 3 weeks, the effect of the preparations is scored visually in comparison with untreated controls as percentages. For example, 100% activity=the plants have died, 0% activity=like control plants. Tables 13 to 26 below show the effects of selected compounds of the general formula (I) on various harmful plants and at an application rate corresponding to 320 g/ha, which were obtained by the experimental procedure mentioned above.

[8] = system: POAAN; assay: Pre-emergence action against POAAN, 1280 g/ha; assay type: in vivo, Poa annua; details: visual scoring after about 3 weeks vs untreated controls, 100% = plants have died, 0% = like control plants
How it was run: as §2

[9] = system: SETVI; assay: Post-emergence action against SETVI, 1.28 kg/ha; assay type: in vivo, Setaria viridis; details: dosage 1280 g/ha, visual rating about 3 weeks after treatment vs untreated controls
How it was run: as §3

[10] = system: ALOMY; assay: Pre-emergence action against ALOMY, 1280 g/ha; assay type: in vivo, Alopecurus myosuroides; details: visual scoring after about 3 weeks vs untreated controls, 100% = plants have died, 0% = like control plants
How it was run: as §2

[11] = system: AMARE; assay: Post-emergence action against AMARE, 1.28 kg/ha; assay type: in vivo, Amaranthus retroflexus; details: dosage 1280 g/ha, visual rating about 3 weeks after treatment vs untreated controls (100% = plants died)
How it was run: as §3

[12] = system: VIOTR; assay: Pre-emergence action at 320 g/ha against VIOTR; assay type: in vivo, Viola tricolor; details: dosage 320 g/ha
How it was run: as §1

[13] = system: POAAN; assay: Post-emergence action against POAAN, 1.28 kg/ha; assay type: in vivo, Poa annua; details: dosage 1280 g/ha, visual rating about 3 weeks after treatment vs untreated controls
How it was run: as §3

[14] = system: LOLRI; assay: Post-emergence action against LOLRI, 1.28 kg/ha; assay type: in vivo, Lolium rigidum; details: dosage 1280 g/ha, visual rating about 3 weeks after treatment vs untreated controls
How it was run: as §3

[15] = system: KCHSC; assay: Post-emergence action against KCHSC, 1.28 kg/ha; assay type: in vivo, Bassia scoparia; details: dosage 1280 g/ha, visual rating about 3 weeks after treatment vs untreated controls (100% = plants died)
How it was run: as §3

[16] = system: ECHCG; assay: Pre-emergence action against ECHCG, 1280 g/ha; assay type: in vivo, Echinochloa crus-galli; details: visual scoring after about 3 weeks vs untreated controls, 100% = plants have died, 0% = like control plants
How it was run: as §2

[17] = system: DIGSA; assay: Post-emergence action against DIGSA, 1.28 kg/ha; assay type: in vivo, Digitaria sanguinalis; details: dosage 1280 g/ha, visual rating about 3 weeks after treatment vs untreated controls
How it was run: as §3

[18] = system: ALOMY; assay: Pre-emergence action at 320 g/ha against ALOMY; assay type: in vivo, Alopecurus myosuroides; details: scored visually after about 3 weeks vs untreated controls (100% = plants have died)
How it was run: as §1

[19] = system: AMARE; assay: Pre-emergence action against AMARE, 1280 g/ha; assay type: in vivo, Amaranthus retroflexus; details: scored visually after about 3 weeks vs untreated controls (100% = plants have died)
How it was run: as §2

[20] = system: VERPE; assay: Pre-emergence action at 320 g/ha against VERPE; assay type: in vivo, Veronica persica; details: visual scoring after about 3 weeks vs untreated controls
How it was run: as §1

[21] = system: DIGSA; assay: Pre-emergence action against DIGSA, 1280 g/ha; assay type: in vivo, Digitaria sanguinalis; details: visual scoring after about 3 weeks vs untreated controls, 100% = plants have died, 0% = like control plants
How it was run: as §2

[22] = system: KCHSC; assay: Pre-emergence action against KCHSC, 1280 g/ha; assay type: in vivo, Bassia scoparia; details: scored visually after about 3 weeks vs untreated controls (100% = plants have died)
How it was run: as §2

[23] = system: ABUTH; assay: Post-emergence action against ABUTH, 1.28 kg/ha; assay type: in vivo, Abutilon theophrasti; details: dosage 1280 g/ha, visual rating about 3 weeks after treatment vs untreated controls (100% = plants died)
How it was run: as §3

[24] = system: MATIN; assay: Pre-emergence action at 320 g/ha against MATIN; assay type: in vivo, Tripleurospermum inodorum (Matricaria inodora); details: visual scoring after about 3 weeks vs untreated controls
How it was run: as §1

[25] = system: MATIN; assay: Pre-emergence action against MATIN, 1280 g/ha; assay type: in vivo, Tripleurospermum inodorum (Matricaria inodora); details: scored visually after about 3 weeks vs untreated controls (100% = plants have died)
How it was run: as §2

[26] = system: LOLRI; assay: Pre-emergence action at 320 g/ha against LOLRI; assay type: in vivo, Lolium rigidum; details: visual scoring after about 3 weeks vs untreated controls
How it was run: as §1

[27] = system: LOLRI; assay: Pre-emergence action against LOLRI, 1280 g/ha; assay type: in vivo, Lolium rigidum; details: visual scoring after about 3 weeks vs untreated controls, 100% = plants have died, 0% = like control plants
How it was run: as §2

[28] = system: ECHGC; assay: Pre-emergence action at 320 g/ha against ECHGC; assay type: in vivo, Echinochloa crus-galli; details: visual scoring after about 3 weeks vs untreated controls
Source text: as §4

[29] = system: ECHCG; assay: Post-emergence action against ECHCG, 1.28 kg/ha; assay type: in vivo, Echinochloa crus-galli; details: dosage 1280 g/ha, visual rating about 3 weeks after treatment vs untreated controls
How it was run: as §3

[30] = system: MATIN; assay: Post-emergence action against MATIN, 1.28 kg/ha; assay type: in vivo, Tripleurospermum inodorum (Matricaria inodora); details: dosage 1280 g/ha, visual rating about 3 weeks after treatment vs untreated controls (100% = plants died)
How it was run: as §3

[31] = system: STEME; assay: Pre-emergence action against STEME, 1280 g/ha; assay type: in vivo, Stellaria media; details: scored visually after about 3 weeks vs untreated controls (100% = plants have died)
How it was run: as §2

[32] = system: VERPE; assay: Post-emergence action against VERPE, 1.28 kg/ha; assay type: in vivo, Veronica persica; details: dosage 1280 g/ha, visual rating about 3 weeks after treatment vs untreated controls (100% = plants died)
How it was run: as §3

[33] = system: ABUTH; assay: Pre-emergence action against ABUTH, 1280 g/ha; assay type: in vivo, Abutilon theophrasti; details: scored visually after about 3 weeks vs untreated controls (100% = plants have died)
Source text: 1. Pre-Emergence Herbicidal Effect and Crop Plant Compatibility a) Seeds of mono- and dicotyledonous weed plants are placed in plastic pots in sandy loam soil (doubly sown with one species each of mono- or dicotyledonous weed plants per pot) and covered with soil. The compounds of the invention, formulated in the form of wettable powders (WP) or as emulsion concentrates (EC), are then applied onto the surface of the covering soil as aqueous suspension or emulsion with addition of 0.5% additive at a water application rate equivalent to 600 litres per hectare. After the treatment, the pots are placed in a greenhouse and kept under good growth conditions for the trial plants. After about 3 weeks, the effect of the preparations is scored visually in comparison with untreated controls as percentages. For example, 100% activity=the plants have died, 0% activity=like control plants. 1. Pre-Emergence Effectiveness Tables 1 to 12 below show the effects of selected compounds of the general formula (I) according to Tables 1 and 2 on various harmful plants and at an application rate corresponding to 1280 g/ha, which were obtained by the experimental procedure mentioned above.

Compound | Pre-emergence action against SETVI [3] [%] | Pre-emergence action against VERPE [5] [%] | Pre-emergence action against POAAN [8] [%] | Pre-emergence action against ALOMY [10] [%] | Post-emergence action against POAAN [13] [%] | Pre-emergence action against ECHCG [16] [%] | Pre-emergence action against AMARE [19] [%] | Pre-emergence action against DIGSA [21] [%] | Pre-emergence action against MATIN [25] [%] | Post-emergence action against ECHCG [29] [%] | Pre-emergence action against STEME [31] [%] | Post-emergence action against VERPE [32] [%] | also measured
O=C(O)CNC(=O)COc1nn(-c2ccccc2F)c(-c2ccc(F)nc2)c1Br [Example X-021-a] | 100 | 100 | 100 | 100 | 100 | 100 | 100 | 100 | 100 | 100 | 100 | 100 | Pre-emergence action against SETVI in % [1]: 100%; Pre-emergence action against AMARE in % [2]: 100%; Post-emergence action against ALOMY [4]: 100%; Pre-emergence action against POLCO in % [6]: 100%; Pre-emergence action against AVEFA in % [7]: 100%; Post-emergence action against SETVI [9]: 100%; Post-emergence action against AMARE [11]: 100%; Pre-emergence action against VIOTR in % [12]: 100%; Post-emergence action against LOLRI [14]: 100%; Post-emergence action against KCHSC [15]: 100%; Post-emergence action against DIGSA [17]: 100%; Pre-emergence action at 320 g/ha against ALOMY in % [18]: 100%; Pre-emergence action against VERPE in % [20]: 100%; Pre-emergence action against KCHSC [22]: 90%; Post-emergence action against ABUTH [23]: 100%; Pre-emergence action against MATIN in % [24]: 90%; Pre-emergence action against LOLRI in % [26]: 100%; Pre-emergence action against LOLRI [27]: 100%; Pre-emergence action against ECHGC in % [28]: 100%; Post-emergence action against MATIN [30]: 90%
CN(C)C(=O)COc1nn(-c2ccccc2F)c(-c2ccc(F)nc2)c1Br [Example X-027] | 100 | 100 | 100 | 100 | 100 | 100 | 100 | 100 | 90 | 90 | 90 | 100 | Pre-emergence action against ABUTH [33]: 90%
